According to PMC10498667 (Chemical Science, 2023):
Where two headings read alike, the source gives them in different places.

Columns and labels:
MTT cytotoxicity assay = format: cell-based; conditions: human
Description: Flavonoid 6 was synthesized following previously reported procedures with modifications.[66–68] […] It should be noted that cell viability was calculated, relative to that of the cells containing an equivalent amount of DMSO.
Cell viability was determined by the MTT assay [MTT = 3-(4,5-dimethylthiazol-2-yl)-2,5-diphenyltetrazolium bromide]. Cells were seeded in a 96-well plate (15,000 cells/100 µL) and treated with the samples {[flavonoid] = 5, 10, 25, 50, and 100 µM (1% v/v DMSO)}. After 24 h incubation, 5Y cells were washed with phosphate buffered saline (PBS; GIBCO). MTT [5 mg/mL in PBS (pH 7.4, GIBCO); 25 µL] was added to each well and the plate was incubated for 4 h at 37 °C. The formazan produced by cells was solubilized using an acidic solution of DMF (pH 4.5, 50% v/v, aq) and sodium dodecyl sulfate (SDS; 20% w/v) overnight at room temperature in the dark. Absorbance was measured at 600 nm by a microplate reader (Molecular Devices). Cell viability, relative to that of the cells containing an equivalent amount of DMSO, was calculated.
The measurements were conducted in triplicate. […]

Aβ42 [1] = molecular target: T1, Aβ42 (Homo sapiens, UniProt P05067); assay: Dot blot assay with anti-oligomer (A11) and anti-fibril (OC) antibodies; format: biochemical; conditions: flavonoid 200 μM, up to 24 h
T1 construct: purchased Peptide Institute, Inc. (Osaka, Japan)
Text: Moreover, to investigate the effects of the flavonoids on the oligomerization and fibrilization of metal-free Aβ42 and metal–Aβ42, we performed the dot blot assay employing anti-oligomer (A11) and anti-fibril (OC) antibodies,[23] as illustrated in Fig. S12. ^† It should be noted that the thioflavin-T (ThT) assay utilized for monitoring the formation of β-sheet-rich aggregates cannot be carried out under our experimental conditions since the absorption windows of 4, 5, and 4b interfere with the excitation and emission wavelengths of ThT (Fig. S13 ^†). […]
Dot Blot Assay. The samples containing Ab42 (100 µM) with or without CuCl2 or ZnCl2 (100 µM) in the absence and presence of flavonoids (200 µM; 1% v/v DMSO) were prepared in 20 mM HEPES, pH 7.4, 150 mM NaCl and incubated for various time points (0, 1, 2, 3, 4, 6, 12, and 24 h). […] The membrane was incubated with a primary antibody [i.e., 6E1026 for Ab species (1:2,000), A1126 for Ab oligomers (1:1,000; Invitrogen, Carlsbad, CA, USA), or OC26 for Ab fibrils (1:2,000; Merch Millipore, Billerica, MA, USA)] in the solution of BSA (2% w/v in TBS-T) for 4 h at room temperature. […] A homemade ECL kit21–23 was used to visualize the results on a ChemiDoc MP Imaging System.
The intensity observed from A11- or OC-detectable Ab species was quantified, relative to that detected from 6E10, by the ImageJ software. […]

Aβ42 [2] = molecular target: T1, Aβ42; assay: Aβ42 aggregation inhibition experiments (gel/western blot, TEM); format: biochemical; conditions: flavonoid 50 μM, 24 h
Description: To verify whether a series of nine flavonoids can modulate the aggregation of Aβ with and without metal ions, the molecular weight (MW) distribution and morphology of the resultant Aβ species were determined by gel electrophoresis with western blotting (gel/western blot) using an anti-Aβ antibody (6E10) and transmission electron microscopy (TEM), respectively. Two types of experiments were carried out employing two major Aβ isoforms, i.e., Aβ42 and Aβ40:[25] (i) inhibition studies to identify the effect of 1–5, 1a, 1b, 4a, and 4b on the formation of Aβ aggregates; (ii) disaggregation studies to evaluate if the flavonoids with reactivities towards Aβ aggregation in inhibition studies can disassemble preformed Aβ aggregates or modulate their further aggregation, as illustrated in Fig. 4 and S5–S9. ^† Moreover, the solutions containing the flavonoids and Cu(II) were probed by electronic absorption (Abs) spectroscopy to monitor their metal binding. […] As expected, no Abs change of 1a and 4a composed of methoxy groups on the A ring was detected by addition of Cu(II). […]
Ab Aggregation Experiments. Ab was dissolved in ammonium hydroxide [1% w/w NH4OH (aq)] and the resulting solution was aliquoted, lyophilized overnight, and stored at –80 °C. A stock solution of Ab was then prepared by dissolving the lyophilized peptide with NH4OH (1% w/w, aq; 10 µL) and diluting with ddH2O. All Ab samples were prepared following previously reported procedures.21,22 The concentration of the peptide solution was determined by measuring its […]
solution (20 mM HEPES, pH 7.4, 150 mM NaCl) was used for preparing Ab samples. For the inhibition studies, flavonoids (final concentration, 50 µM; 1% v/v DMSO) were added to the samples of Ab (25 µM) in the absence and presence of CuCl2 or ZnCl2 (25 µM) followed by incubation for 24 h at 37 °C with constant agitation. For the disaggregation studies, Ab (25 µM) was incubated with and without CuCl2 or ZnCl2 (25 µM) for 24 h at 37 °C with constant agitation to generate preformed Ab aggregates. The resultant Ab aggregates were then treated with flavonoids (50 µM) and incubated for additional 24 h with constant agitation. For the additional disaggregation experiments, preformed Ab42 aggregates (25 µM) or Ab42 seeds (10% v/v) with or without metal ions (25 µM for CuCl2 and ZnCl2) were incubated with flavonoids (50 µM) for 24 h with constant agitation. The resultant Ab aggregates were then treated with freshly prepared Ab42 […]
(25 µM) and incubated for additional 24 h with constant agitation.
Gel/Western Blot. The resultant Ab species from the aggregation experiments were analyzed by gel/Western blot using an anti-Ab antibody (6E10, Covance, Princeton, NJ, USA).21,22 Each sample (10 µL) was separated on a 10–20% tricine gel (Invitrogen). Following separation, the proteins were transferred onto nitrocellulose membranes and blocked with bovine serum albumin (BSA, 3% w/v; Sigma-Aldrich) in Tris-buffered saline (TBS) containing 0.1% v/v Tween-20 (Sigma-Aldrich) (TBS-T) for 4 h at room temperature or overnight at 4 °C. The membranes were incubated with 6E10 (1:2,000) in the solution of BSA (2% w/v in TBS-T) for 4 h at room temperature. […] A homemade ECL kit21–23 was used to visualize gel/Western blots on a ChemiDoc MP Imaging System (Bio-Rad).
TEM. Samples for TEM were prepared following previously reported methods.22,24 Glow-discharged grids (Formvar/Carbon 300-mesh; Electron Microscopy Sciences, Hatfield, PA, USA) were treated with Ab samples (25 µM; 7.5 µL) for 2 min at room temperature. Excess sample was removed using filter paper followed by washing with ddH2O (3x). Each grid incubated with uranyl […]

[3] = human neuroblastoma 5Y cells, 100 μM flavonoid, 24 h, 5Y cells, relative to DMSO, read-out: cell viability
[4] = Cu(II)–Aβ42 or Zn(II)–Aβ42 100 μM
[5] = Zn(II)–Aβ42, Aβ 25 μM, Zn(II) 25 μM
[6] = 100 μM flavonoid, 24 h, 5Y cells, relative to DMSO, read-out: cell viability
[7] = Cu(II)–Aβ42, Aβ 25 μM, Cu(II) 25 μM

T1 sequence (P05067 672-713 limits assumed): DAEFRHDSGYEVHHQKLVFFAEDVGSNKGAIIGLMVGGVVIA

| Structure (SMILES) | viability at 24 h, 100 μM (MTT cytotoxicity assay; [3]) | A11- and OC-detectable signals (oligomers and fibrils) (Aβ42 [1]; [4]) | A11- and OC-detectable signals (oligomers and fibrils) (Aβ42 [1]; metal-free Aβ42 100 μM) | morphology of resultant aggregates (TEM) (Aβ42 [2]; Cu(II)–Aβ42) | MW distribution of resultant species (gel/western blot) (Aβ42 [2]; [5]) | morphology of resultant aggregates (TEM) (Aβ42 [2]; Zn(II)–Aβ42) | MW distribution of resultant species (gel/western blot) (Aβ42 [2]; metal-free Aβ42 25 μM, 37 °C) | morphology of resultant aggregates (TEM) (Aβ42 [2]; metal-free Aβ42) | viability at 24 h, 100 μM (MTT cytotoxicity assay; [6]) | viability at 24 h, 100 μM (MTT cytotoxicity assay) | MW distribution of resultant species (gel/western blot) (Aβ42 [2]; [7]) |
| --- | --- | --- | --- | --- | --- | --- | --- | --- | --- | --- | --- |
| O=c1c(-c2ccccc2)coc2cc(O)c(O)c(O)c12 [4b, 5,6,7-trihydroxyisoflavone] | ~70% | gradually decreased signal intensities | the formation of Aβ oligomers and fibrils were reduced | chopped and thin fibrils | smearing bands at ca. 25–240 kDa | small amorphous aggregates | discernably reduced the signal intensity of the bands | smaller fibrils and less structured aggregates |  |  |  |
| O=c1cc(-c2ccccc2)oc2cc(O)cc(O)c12 [compound 1, chrysin] |  | not significantly varied | not significantly varied | did not indicate any noticeable morphological changes | a significant change in the MW distribution was not indicated | did not indicate any noticeable morphological changes |  |  | ~30% |  |  |
| O=c1cc(-c2ccccc2)oc2cc(O)c(O)cc12 [compound 2, 6,7-dihydroxyflavone] |  | not significantly varied | not significantly varied | did not indicate any noticeable morphological changes | a significant change in the MW distribution was not indicated | did not indicate any noticeable morphological changes |  |  |  | ~60% |  |
| O=c1cc(-c2ccccc2)oc2ccc(O)c(O)c12 [compound 3, 5,6-dihydroxyflavone] | ~50% |  |  | A mixture of amorphous and small fibrillary aggregates | increased signal intensity between ca. 25–75 kDa | small amorphous aggregates |  |  |  |  | more intense smearing |
| O=c1cc(-c2ccccc2)oc2cc(O)c(O)c(O)c12 [compound 4, baicalein] |  |  | the formation of Aβ oligomers and fibrils were reduced | chopped and thin fibrils | smearing bands at ca. 25–240 kDa | chopped fibrils and amorphous assemblies | discernably reduced the signal intensity of the bands | shorter and thinner fibrils | ~70% |  | enhanced level of dodecameric or larger Aβ42 aggregates |
| O=c1cc(-c2ccccc2)oc2c(Cl)c(O)c(O)c(O)c12 [compound 5, 8-chlorobaicalein] | ~60% |  | the formation of Aβ oligomers and fibrils were reduced | A mixture of amorphous and small fibrillary aggregates | smearing bands at ca. 25–240 kDa | both amorphous and fibrillary Zn(II)–Aβ42 aggregates | discernably reduced the signal intensity of the bands | smaller fibrils and less structured aggregates |  |  |  |
| O=c1c(-c2ccc(O)c(O)c2)coc2cc(O)c(O)c(O)c12 [compound 6, 3-(3,4-dihydroxyphenyl)-5,6,7-trihydroxy-4H-chromen-4-one] |  | significantly decreased A11- and OC-detectable signal intensities | significantly decreased A11- and OC-detectable signal intensities | chopped fibrils | smearing bands from ca. 20–240 kDa were noticeably detected | a mixture of amorphous and fibrillary aggregates | reduced at ca. 4–20 kDa and above ca. 100 kDa | shorter and thinner fibrils |  |  | smearing bands from ca. 20–240 kDa were noticeably detected |
